According to patent US20140093513A1, “METHODS OF LOWERING PROPROTEIN CONVERSATE SUBTILISIN/KEXIN TYPE 9 (PCSK9)” (Catabasis Pharmaceuticals, Inc., priority 2012, published 2014):

System: PCSK9
Assay: PCSK9 secretion assay in HepG2 cells (PCSK9 ELISA)
Format: cell-based
Conditions: HepG2 cells; for IC50: 16 hours incubation, at least 6 concentrations
Protocol: HepG2 cells (from ATCC, Catalog no. HB-8065) were maintained in DMEM (Invitrogen) supplemented with 10% fetal bovine serum (Invitrogen). The day prior to the PCSK9 assay, cells are seeded in 96-well collagen coated plates at 25,000 cells/well.
The compounds of the invention were stored at −20° C. until used. The test article compound was dissolved in 100% ethanol to a 50 mM stock solution. This was then diluted in FBS to a final concentration of 1 mM. This solution was placed in a sonicating water bath for 30 minutes. Subsequent dilutions were then made in FBS supplemented with an equivalent volume of ethanol and mixed by vortexing.
HepG2 cells were seeded onto a collagen coated 96-well plate (Becton Dickinson, Catalog no. 35-4407) the day prior to the assay, as described above. The next day, the cell medium was removed, washed once with 100 μL serum free DMEM to remove any residual PCSK9, and replaced with 90 μL of serum free DMEM. Ten microliters of each compound concentration prepared in FBS was then added. Each concentration of compound was tested in triplicate. The compound was incubated with the cells overnight for 16 hours. Following this incubation, 10 μL of AlamarBlue was added to each well and cells incubated for another 2 hours. The plates were then removed and AlamarBlue fluorescence was measured (excitation, 550 nm and […]) to assess cell viability. Cell culture supernatant was then diluted […] 1×RDSP Calibrator Diluent and PCSK9 ELISA was then performed with 50 μL of this diluted sample, as per the manufacturer's instructions. The ELISA was measured on a Victor X5 multilabel plate reader (PerkinElmer) at an absorbance of 450 nm with background correction measured at 550 nm (The PCSK9 Elisa kits can be purchased from R&D System, Catalog no. DPC900).
Alternatively, an IC50 could also be obtained when this type of assay was carried out using at least 6 different concentrations of the test compounds. Table 1 lists the IC50 values for the compounds tested in this assay.

Row | SMILES | IC50 | also measured
1 | CC(C)c1c(C(=O)Nc2ccccc2)c(-c2ccccc2)c(-c2ccc(F)cc2)n1CC[C@@H](O)C[C@@H](O)CC(=O)O [atorvastatin, reference compound] |  | PCSK9 secretion (10 μM atorvastatin, FIG. 2): increases PCSK9 secretion
2 | CC/C=C\C/C=C\C/C=C\C/C=C\C/C=C\CCCC(=O)N1CC[C@@H](CNC(=O)C2=CC(=O)C(C)(c3ccccc3)O2)C1 (stereo partly drawn) [VII-6, N—(((S)-1-((5Z,8Z,11Z,14Z,17Z)-icosa-5,8,11,14,17-pentaenoyl)pyrrolidin-3-yl)methyl)-5-methyl-4-oxo-5-phenyl-4,5-dihydrofuran-2-carboxamide] | < 25 µM | 
3 | CC/C=C\C/C=C\C/C=C\C/C=C\C/C=C\CCCC(=O)N1CCC(CN(C)C(=O)C2=CC(=O)C(C)(c3ccccc3)O2)CC1 (stereo not drawn) [VII-8, N-((1-((5Z,8Z,11Z,14Z,17Z)-icosa-5,8,11,14,17-pentaenoyl)piperidin-4-yl)methyl)-N,5-dimethyl-4-oxo-5-phenyl-4,5-dihydrofuran-2-carboxamide] | < 25 µM | 
4 | CC/C=C\C/C=C\C/C=C\C/C=C\C/C=C\CCCC(=O)N[C@H]1CC[C@H](NC(=O)c2cccnc2)CC1 [Compound I-42, N-((1R,4R)-4-((5Z,8Z,11Z,14Z,17Z)-icosa-5,8,11,14,17-pentaenamido)cyclohexyl)nicotinamide] | > 50 µM | 
5 | CC/C=C\C/C=C\C/C=C\C/C=C\C/C=C\CCCC(=O)N1CCC(NC(=O)C(C)(C)Oc2ccc(C(=O)c3ccc(Cl)cc3)cc2)CC1 [VII-19, 2-(4-(4-chlorobenzoyl)phenoxy)-N-(1-((5Z,8Z,11Z,14Z,17Z)-icosa-5,8,11,14,17-pentaenoyl)piperidin-4-yl)-2-methylpropanamide] | < 25 µM | 
6 | CC/C=C\C/C=C\C/C=C\C/C=C\C/C=C\CCCC(=O)NC[C@@H]1CCCN1C(=O)c1cccnc1 [Compound I-32, (5Z,8Z,11Z,14Z,17Z)—N—(((S)-1-nicotinoylpyrrolidin-2-yl)methyl)icosa-5,8,11,14,17-pentaenamide] | < 25 µM | 
7 | CC/C=C\C/C=C\C/C=C\C/C=C\C/C=C\CCCC(=O)NC1CCN(C(=O)C(C)(C)Oc2ccc(C(=O)c3ccc(Cl)cc3)cc2)CC1 [VII-25, (5Z,8Z,11Z,14Z,17Z)—N-(1-(2-(4-(4-chlorobenzoyl)phenoxy)-2-methylpropanoyl)piperidin-4-yl)icosa-5,8,11,14,17-pentaenamide] | < 25 µM | 
8 | CC/C=C\C/C=C\C/C=C\C/C=C\C/C=C\CCCC(=O)N1CCC(CNC(=O)C(C)(C)Oc2ccc(C(=O)c3ccc(Cl)cc3)cc2)CC1 [VII-20, 2-(4-(4-chlorobenzoyl)phenoxy)-N-((1-((5Z,8Z,11Z,14Z,17Z)-icosa-5,8,11,14,17-pentaenoyl)piperidin-4-yl)methyl)-2-methylpropanamide] | < 25 µM | 
9 | CC/C=C\C/C=C\C/C=C\C/C=C\C/C=C\CCCC(=O)NCCNC(=O)c1cncc(O)c1 [VI-5, 5-hydroxy-N-(2-((5Z,8Z,11Z,14Z,17Z)-icosa-5,8,11,14,17-pentaenamido)ethyl)nicotinamide] | 25 to 50 µM | 
10 | CC/C=C\C/C=C\C/C=C\C/C=C\C/C=C\CCCC(=O)NCCNC(=O)c1cnccc1O [VI-1, 4-hydroxy-N-(2-((5Z,8Z,11Z,14Z,17Z)-icosa-5,8,11,14,17-pentaenamido)ethyl)nicotinamide] | > 50 µM | 
11 | CC/C=C\C/C=C\C/C=C\C/C=C\C/C=C\CCCC(=O)NCCNC(=O)c1ccncc1 [II-8, N-(2-((5Z,8Z,11Z,14Z,17Z)-icosa-5,8,11,14,17-pentaenamido)ethyl)isonicotinamide] | > 50 µM | 
12 | CC/C=C\C/C=C\C/C=C\C/C=C\C/C=C\CCCC(=O)N1CC[C@H](NC(=O)C(C)(C)Oc2ccc(C(=O)c3ccc(Cl)cc3)cc2)C1 [VII-22, 2-(4-(4-chlorobenzoyl)phenoxy)-N—((S)-1-((5Z,8Z,11Z,14Z,17Z)-icosa-5,8,11,14,17-pentaenoyl)pyrrolidin-3-yl)-2-methylpropanamide] | < 25 µM | 
13 | CC/C=C\C/C=C\C/C=C\C/C=C\C/C=C\CCCC(=O)NCCNC(C)=O [Compound A, (5Z,8Z,11Z,14Z,17Z)—N-(2-acetamidoethyl)icosa-5,8,11,14,17-pentaenamide, reference compound] |  | activity toward PCSK9 (highest tested concentration of 50 μM, FIG. 1): essentially no activity
14 | CC/C=C\C/C=C\C/C=C\C/C=C\C/C=C\CCCC(=O)N1CCC(CN(C)C(=O)c2cnc(C)c[n+]2[O-])CC1 [VII-16, 2-(((1-((5Z,8Z,11Z,14Z,17Z)-icosa-5,8,11,14,17-pentaenoyl)piperidin-4-yl)methyl)(methyl)carbamoyl)-5-methylpyrazine 1-oxide] | 25 to 50 µM | 
15 | CC/C=C\C/C=C\C/C=C\C/C=C\C/C=C\CCCC(=O)N[C@H]1CC[C@H](CNC(=O)c2cccnc2)CC1 [Compound I-41, N-(((1R,4R)-4-((5Z,8Z,11Z,14Z,17Z)-icosa-5,8,11,14,17-pentaenamido)cyclohexyl)methyl)nicotinamide] | < 25 µM | 
16 | CC/C=C\C/C=C\C/C=C\C/C=C\C/C=C\C/C=C\CCC(=O)N(C)CCNC(=O)c1cccnc1 [Compound I-14, N-(2-((4Z,7Z,10Z,13Z,16Z,19Z)—N-methyldocosa-4,7,10,13,16,19-hexaenamido)ethyl)nicotinamide] | < 25 µM | 
17 | CC/C=C\C/C=C\C/C=C\C/C=C\C/C=C\CCCC(=O)NCCNC(=O)c1cccnc1-c1ccccc1 [VI-4, N-(2-((5Z,8Z,11Z,14Z,17Z)-icosa-5,8,11,14,17-pentaenamido)ethyl)-2-phenylnicotinamide] | > 50 µM | 
18 | CC/C=C\C/C=C\C/C=C\C/C=C\C/C=C\CCCC(=O)NCCNC(=O)CCNC(=O)c1cccnc1 [Compound I-26, N-(3-((2-((5Z,8Z,11Z,14Z,17Z)-icosa-5,8,11,14,17-pentaenamido)ethyl)amino)-3-oxopropyl)nicotinamide] | 25 to 50 µM | 
19 | CC/C=C\C/C=C\C/C=C\C/C=C\C/C=C\CCCC(=O)N1CCC(CNC(=O)c2cnc(C)c[n+]2[O-])CC1 [VII-10, 2-(((1-((5Z,8Z,11Z,14Z,17Z)-icosa-5,8,11,14,17-pentaenoyl)piperidin-4-yl)methyl)carbamoyl)-5-methylpyrazine 1-oxide] | < 25 µM | 
20 | CC/C=C\C/C=C\C/C=C\C/C=C\C/C=C\CCCC(=O)N1CCC[C@H]1CNC(=O)c1cccnc1 [Compound I-34, N—(((S)-1-((5Z,8Z,11Z,14Z,17Z)-icosa-5,8,11,14,17-pentaenoyl)pyrrolidin-2-yl)methyl)nicotinamide] | < 25 µM | 
21 | CC/C=C\C/C=C\C/C=C\C/C=C\C/C=C\CCCC(=O)N1CC[C@H](CNC(=O)C2=CC(=O)C(C)(c3ccccc3)O2)C1 (stereo partly drawn) [VII-5, N—(((R)-1-((5Z,8Z,11Z,14Z,17Z)-icosa-5,8,11,14,17-pentaenoyl)pyrrolidin-3-yl)methyl)-5-methyl-4-oxo-5-phenyl-4,5-dihydrofuran-2-carboxamide] | < 25 µM | 
22 | CC/C=C\C/C=C\C/C=C\C/C=C\C/C=C\CCCC(=O)NCCNC(=O)C(C)(C)Oc1ccc(CCNC(=O)c2ccc(Cl)cc2)cc1 [II-39, 4-chloro-N-(4-((1-((2-((5Z,8Z,11Z,14Z,17Z)-icosa-5,8,11,14,17-pentaenamido)ethyl)amino)-2-methyl-1-oxopropan-2-yl)oxy)phenethyl)benzamide] | < 25 µM | 
23 | CC/C=C\C/C=C\C/C=C\C/C=C\C/C=C\CCCC(=O)N1CCC[C@@H]1CNC(=O)C(C)(C)Oc1ccc(C(=O)c2ccc(Cl)cc2)cc1 [VII-23, 2-(4-(4-chlorobenzoyl)phenoxy)-N—(((R)-1-((5Z,8Z,11Z,14Z,17Z)-icosa-5,8,11,14,17-pentaenoyl)pyrrolidin-2-yl)methyl)-2-methylpropanamide] | < 25 µM | 
24 | CC/C=C\C/C=C\C/C=C\C/C=C\C/C=C\CCCC(=O)N1CCN(C(=O)c2cccnc2)CC1 [Compound I-13, (5Z,8Z,11Z,14Z,17Z)-1-(4-nicotinoylpiperazin-1-yl)icosa-5,8,11,14,17-pentaen-1-one] | 25 to 50 µM | 
25 | CC/C=C\C/C=C\C/C=C\C/C=C\C/C=C\CCCC(=O)N1CC[C@H](N(C)C(=O)c2cnc(C)c[n+]2[O-])C1 [VII-17, 2-(((S)-1-((5Z,8Z,11Z,14Z,17Z)-icosa-5,8,11,14,17-pentaenoyl)pyrrolidin-3-yl)(methyl)carbamoyl)-5-methylpyrazine 1-oxide] | < 25 µM | 
26 | CC/C=C\C/C=C\C/C=C\C/C=C\C/C=C\CCCC(=O)N1CC[C@@H](NC(=O)C2=CC(=O)C(C)(c3ccccc3)O2)C1 (stereo partly drawn) [VII-3, N—((R)-1-((5Z,8Z,11Z,14Z,17Z)-icosa-5,8,11,14,17-pentaenoyl)pyrrolidin-3-yl)-5-methyl-4-oxo-5-phenyl-4,5-dihydrofuran-2-carboxamide] | < 25 µM | 
27 | CC/C=C\C/C=C\C/C=C\C/C=C\C/C=C\CCCC(=O)N1CCC[C@H]1CNC(=O)C(C)(C)Oc1ccc(C(=O)c2ccc(Cl)cc2)cc1 [VII-24, 2-(4-(4-chlorobenzoyl)phenoxy)-N—(((S)-1-((5Z,8Z,11Z,14Z,17Z)-icosa-5,8,11,14,17-pentaenoyl)pyrrolidin-2-yl)methyl)-2-methylpropanamide] | > 50 µM | 
